Laboratory results reported in US12544388B2, “Compound for treating and/or preventing diseases caused by coronavirus and use thereof” (SHANGHAITECH UNIVERSITY, priority 2020, dated 2026).
pIC50: −log10 of the molar value.

Key:
[1] = in vitro; details: African green monkey
[2] = target: SARS-CoV-2 papain-like protease (Severe acute respiratory syndrome coronavirus 2, UniProt P0DTD1); format: biochemical; details: for inhibition of papain-like protease activity versus negative control: 50 μM inhibitor, 0.2 μM enzyme (FIG. 4, FIG. 5)
[3] = Phase I, patients with advanced solid tumors; cited from earlier work

Compound | CC50 [1] | inhibition of papain-like protease activity versus negative control [2] | MTD (maximum tolerated dose) [3] | pIC50 ([2]; 200 nM enzyme, 20 μM substrate, 10 min room temperature, read-out: IC50, inhibitory activity on novel coronavirus papain-like protease)
C[C@H]1COC2=C1C(=O)C(=O)c1c2ccc2c1CCCC2(C)C [cryptotanshinone, Cryptotanshinone] | > 300 µM | significantly inhibit | – | –
Cc1coc2c1C(=O)C(=O)c1c-2ccc2c(C)cccc12 [tanshinone I, Tanshinone I] | > 300 µM | significantly inhibit | – | –
Br.COCCn1c2c([n+](Cc3cnccn3)c1C)C(=O)c1ccccc1C2=O [YM155, Sepantronium Bromide] | > 133 µM | – | 8.0 mg/m^2/d | 5.61
